A word on the solubility: it is the concentration that dissolves in the medium under given conditions. The low end stands for a poorly soluble substance, the high end for a readily soluble substance. The cell viability is a read-out of living cells in per cent, often relative to untreated cells.

Like-named read-outs stand apart in the source and are kept apart here.

Series [1] can be described thus: Solubility in PBS of hard block degradation products. The format is physicochemical. As to conditions: for solubility: aqueous buffer. An excerpt: The variety of the biodegradation products of the [AB]n materials of this invention is limited, where this is due to the simple and defined molecular structures of the [AB]n materials with only one type of soft block A and only one type of hard block B for a particular [AB]n material. […] Degradation products from the hard block are lower molecular weight molecules such as the molecules shown in Examples 25 and 26 (not: molecules 26E, 26F, 26G).

Series [2] has as its system 3T3 mouse fibroblasts. Put plainly: MTT cytotoxicity assay. Particulars: cells treated with medium exposed to the material, relative to untreated medium. On the technique in general: Tetrazolium assays rely on reduction of a dye to a coloured formazan, in cell work by metabolically active cells.
The test system of series [3] is 3T3 mouse fibroblasts.

As for `NCCCCCNC(=O)CCCCCN` [Example 25C, 6-amino-N-(5-aminopentyl)hexanamide], the solubility in series [1] was greater than 5000 µg/mL. Still for that read-out and setting: the figure for `NCCCCNC(=O)CCCCC(=O)NCCCCN` [Example 25D, N^1,N^6-bis(4-aminobutyl)adipamide] is greater than 5000 µg/mL; for `NCCCCCCNC(=O)NCCCCCCN` [Example 25E, 1,3-bis-(6-aminohexyl)urea] it is greater than 5000 µg/mL. Turning to `O=C(O)CCCCCNC(=O)NCCCCNC(=O)NCCCCCC(=O)O` [Example 26B], the “solubility in PBS” value in series [1] is on record as greater than 1 mg/mL. For Triton X-100, the cell viability in the series with 3T3 mouse fibroblasts [2] is given as 0%. Consider “poly(hexyl carbonate-random-co-ε-caprolactone) bisurea [Example 32]”, for which the cell viability with 3T3 mouse fibroblasts [3] is reported as 60-116%.

The values are drawn from patent US10556994B2, “Strictly segmented thermoplastic elastomers as biodegradable biomaterials” (SyMO-Chem B.V., priority 2014, dated 2020).
